Test results: the NIST ThermoML archive (doi:10.1016/j.fluid.2015.04.017)
± gives the expanded uncertainty stated by the source.

Experiment: xn = mol fraction of the nth substance listed
Details: 101 kPa, Liquid; for viscosity: Concentric cylinders viscometry; for mass density: Vibrating tube method

CCOC(=O)C(C)O (stereo not drawn) [DL-ethyl lactate] + CCC(C)=O
Details	mass density [kg/m3]	viscosity [mPa·s]
288.15 K, x1 = 0.0999	840.096 ± 0.15	0.5127 ± 0.0066
288.15 K, x1 = 0.1999	868.347 ± 0.15	0.6157 ± 0.0075
288.15 K, x1 = 0.3001	894.852 ± 0.15	0.7578 ± 0.0087
288.15 K, x1 = 0.4001	919.605 ± 0.15	0.9204 ± 0.01
288.15 K, x1 = 0.5	942.723 ± 0.16	1.128 ± 0.012
288.15 K, x1 = 0.5998	964.577 ± 0.17	1.384 ± 0.015
288.15 K, x1 = 0.6999	985.434 ± 0.18	1.707 ± 0.018
288.15 K, x1 = 0.8	1005.13 ± 0.2	2.113 ± 0.022
288.15 K, x1 = 0.9001	1023.3 ± 0.23	2.63 ± 0.027
288.15 K, x1 = 1	1039.28 ± 0.26	3.207 ± 0.033
293.15 K, x1 = 0.0999	834.849 ± 0.15	0.4886 ± 0.0064
293.15 K, x1 = 0.1999	863.068 ± 0.15	0.5824 ± 0.0072
293.15 K, x1 = 0.3001	889.537 ± 0.15	0.7086 ± 0.0083
293.15 K, x1 = 0.4001	914.27 ± 0.15	0.8532 ± 0.0095
293.15 K, x1 = 0.5	937.369 ± 0.16	1.035 ± 0.011
293.15 K, x1 = 0.5998	959.204 ± 0.17	1.254 ± 0.013
293.15 K, x1 = 0.6999	980.043 ± 0.18	1.527 ± 0.016
293.15 K, x1 = 0.8	999.721 ± 0.2	1.862 ± 0.019
293.15 K, x1 = 0.9001	1017.88 ± 0.23	2.287 ± 0.024
293.15 K, x1 = 1	1033.84 ± 0.26	2.752 ± 0.028
298.15 K, x1 = 0.0999	829.575 ± 0.15	0.4651 ± 0.0063
298.15 K, x1 = 0.1999	857.764 ± 0.15	0.5514 ± 0.0069
298.15 K, x1 = 0.3001	884.198 ± 0.15	0.6643 ± 0.0079
298.15 K, x1 = 0.4001	908.905 ± 0.15	0.7937 ± 0.009
298.15 K, x1 = 0.5	931.98 ± 0.16	0.9526 ± 0.01
298.15 K, x1 = 0.5998	953.795 ± 0.17	1.141 ± 0.012
298.15 K, x1 = 0.6999	974.621 ± 0.18	1.375 ± 0.015
298.15 K, x1 = 0.8	994.289 ± 0.2	1.658 ± 0.017
298.15 K, x1 = 0.9001	1012.45 ± 0.22	2.007 ± 0.021
298.15 K, x1 = 1	1028.39 ± 0.25	2.39 ± 0.025
303.15 K, x1 = 0.0999	824.277 ± 0.15	0.4429 ± 0.0061
303.15 K, x1 = 0.1999	852.434 ± 0.15	0.5214 ± 0.0067
303.15 K, x1 = 0.3001	878.836 ± 0.15	0.6229 ± 0.0075
303.15 K, x1 = 0.4001	903.522 ± 0.16	0.7397 ± 0.0086
303.15 K, x1 = 0.5	926.577 ± 0.16	0.8816 ± 0.0099
303.15 K, x1 = 0.5998	948.373 ± 0.17	1.046 ± 0.011
303.15 K, x1 = 0.6999	969.181 ± 0.18	1.248 ± 0.013
303.15 K, x1 = 0.8	988.835 ± 0.2	1.489 ± 0.016
303.15 K, x1 = 0.9001	1006.99 ± 0.22	1.783 ± 0.019
303.15 K, x1 = 1	1022.92 ± 0.25	2.097 ± 0.022
308.15 K, x1 = 0.0999	818.947 ± 0.15	0.4211 ± 0.0059
308.15 K, x1 = 0.1999	847.072 ± 0.15	0.4939 ± 0.0065
308.15 K, x1 = 0.3001	873.449 ± 0.15	0.5848 ± 0.0073
308.15 K, x1 = 0.4001	898.112 ± 0.16	0.6909 ± 0.0082
308.15 K, x1 = 0.5	921.146 ± 0.16	0.8175 ± 0.0093
308.15 K, x1 = 0.5998	942.923 ± 0.17	0.9624 ± 0.011
308.15 K, x1 = 0.6999	963.714 ± 0.18	1.138 ± 0.012
308.15 K, x1 = 0.8	983.356 ± 0.2	1.345 ± 0.014
308.15 K, x1 = 0.9001	1001.5 ± 0.21	1.595 ± 0.017
308.15 K, x1 = 1	1017.42 ± 0.24	1.858 ± 0.02
313.15 K, x1 = 0.0999	813.582 ± 0.15	0.4001 ± 0.0058
313.15 K, x1 = 0.1999	841.677 ± 0.15	0.4671 ± 0.0063
313.15 K, x1 = 0.3001	868.027 ± 0.15	0.5492 ± 0.007
313.15 K, x1 = 0.4001	892.67 ± 0.16	0.6463 ± 0.0078
313.15 K, x1 = 0.5	915.688 ± 0.16	0.7602 ± 0.0088
313.15 K, x1 = 0.5998	937.45 ± 0.17	0.8883 ± 0.01
313.15 K, x1 = 0.6999	958.226 ± 0.18	1.042 ± 0.011
313.15 K, x1 = 0.8	977.854 ± 0.2	1.222 ± 0.013
313.15 K, x1 = 0.9001	995.984 ± 0.21	1.436 ± 0.015
313.15 K, x1 = 1	1011.9 ± 0.24	1.658 ± 0.018
318.15 K, x1 = 0.0999	808.184 ± 0.16	0.3798 ± 0.0056
318.15 K, x1 = 0.1999	836.25 ± 0.16	0.4415 ± 0.0061
318.15 K, x1 = 0.3001	862.576 ± 0.16	0.5165 ± 0.0067
318.15 K, x1 = 0.4001	887.197 ± 0.16	0.6052 ± 0.0075
318.15 K, x1 = 0.5	910.198 ± 0.17	0.709 ± 0.0084
318.15 K, x1 = 0.5998	931.944 ± 0.17	0.8229 ± 0.0094
318.15 K, x1 = 0.6999	952.707 ± 0.18	0.9589 ± 0.011
318.15 K, x1 = 0.8	972.323 ± 0.2	1.116 ± 0.012
318.15 K, x1 = 0.9001	990.445 ± 0.21	1.3 ± 0.014
318.15 K, x1 = 1	1006.36 ± 0.23	1.491 ± 0.016
323.15 K, x1 = 0.0999	802.753 ± 0.16	0.3598 ± 0.0055
323.15 K, x1 = 0.1999	830.788 ± 0.16	0.4212 ± 0.0059
323.15 K, x1 = 0.3001	857.09 ± 0.16	0.4897 ± 0.0065
323.15 K, x1 = 0.4001	881.694 ± 0.16	0.5699 ± 0.0072
323.15 K, x1 = 0.5	904.683 ± 0.17	0.6649 ± 0.008
323.15 K, x1 = 0.5998	926.419 ± 0.17	0.7673 ± 0.0089
323.15 K, x1 = 0.6999	947.168 ± 0.18	0.8872 ± 0.01
323.15 K, x1 = 0.8	966.77 ± 0.2	1.028 ± 0.011
323.15 K, x1 = 0.9001	984.879 ± 0.21	1.193 ± 0.013
323.15 K, x1 = 1	1000.79 ± 0.23	1.349 ± 0.015
